Laboratory results: ChEMBL document CHEMBL1201862, “PubChem BioAssay data set” (2004)
Calls of active or inactive are those of the source.

How the values were obtained:
[1] = Luminescence Cell-Based Dose Response HTS to Identify Activators of Luciferase Translation or Activity in H4 […] Cells. [Related pubchem assays: 1829 (Project Summary), 1814 (Primary HTS)]; assay type: functional
[2] = target: T1, Polyadenylate-binding protein 1 (Homo sapiens, UniProt P11940); assay: MLLE domain peptide-binding blockers, IC50 – biochemical, fluorescence polarization, FITC-PAM2 peptide, dose response (AID 602259); assay type: functional; settings: read-out: IC50_Mean
T1 sequence (P11940 whole entry, the tested form may be a part): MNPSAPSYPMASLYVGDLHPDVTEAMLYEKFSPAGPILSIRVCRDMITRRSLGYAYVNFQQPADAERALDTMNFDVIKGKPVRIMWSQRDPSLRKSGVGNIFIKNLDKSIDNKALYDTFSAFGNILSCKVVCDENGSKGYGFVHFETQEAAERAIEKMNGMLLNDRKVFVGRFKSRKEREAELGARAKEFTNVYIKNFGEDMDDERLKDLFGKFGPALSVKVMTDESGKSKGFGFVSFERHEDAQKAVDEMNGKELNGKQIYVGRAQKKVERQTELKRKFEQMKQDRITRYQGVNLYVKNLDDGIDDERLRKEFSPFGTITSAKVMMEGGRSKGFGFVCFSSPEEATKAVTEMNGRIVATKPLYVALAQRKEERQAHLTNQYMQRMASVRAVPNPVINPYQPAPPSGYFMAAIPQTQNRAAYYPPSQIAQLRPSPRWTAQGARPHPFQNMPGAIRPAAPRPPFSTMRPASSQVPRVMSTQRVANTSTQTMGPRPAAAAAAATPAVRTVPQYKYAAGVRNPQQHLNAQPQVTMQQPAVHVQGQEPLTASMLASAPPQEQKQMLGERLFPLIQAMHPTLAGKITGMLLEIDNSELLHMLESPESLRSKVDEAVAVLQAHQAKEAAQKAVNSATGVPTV

H4 = assay: Luminescence Cell-Based Dose Response HTS to Identify Activators of 5'UTR Stem-Loop Driven Prion Protein mRNA Translation in H4 Neuroglioblastoma Cells. [Related pubchem assays: 1829 (Project Summary), 1814 (Primary HTS)]; assay type: functional; settings: Homo sapiens
[3] = Luminescence Cell-Based Dose Confirmation HTS to Identify Activators of 5'UTR Stem-Loop Driven Alpha-Synuclein mRNA Translation in H4 Neuroglioblastoma Cells. [Related pubchem assays: 1829 (Project Summary), 1814 (Primary HTS)]; assay type: functional
[4] = target: T1, Polyadenylate-binding protein 1; assay: MLLE binding blockers, Cy5 peptide tracer – biochemical, fluorescence polarization, Cy5-PAM2 peptide, secondary, miRNA deadenylation inhibitor project, dose response (AID 602260); assay type: functional; settings: read-out: IC50_Mean
[5] = A549 cell cytotoxicity, dose response, cytotoxicity control, plate reader, cherry-pick, antagonist series (AID 743412); assay type: functional, cell-based
[6] = toxicity toward HepG2 liver cells – cell-based, plate reader, cherry-pick, antagonist series, cytotoxicity control, dose response (AID 743416); assay type: functional
[7] = viability loss in HEK293 cells – cell-based, plate reader, cherry-picked samples, cytotoxicity control, dose response (AID 743446); assay type: functional
[8] = blockade of melanocortin 4 receptor signaling – cell-based, plate reader, cherry pick, counter-screen for LGR2 antagonist project, dose response (AID 743444); assay type: functional;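 note: transfected HEK 293 cells stimulated with alpha-MSH peptide; potency of inhibitors of the alpha-MSH evoked signal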
[9] = blockers of bursicon-stimulated LGR2 cAMP reporter – cell-based, HEK293, CRE-luciferase reporter, cherry pick, set 2, dose response (AID 743343); assay type: functional;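 note: transfected cells were stimulated with diluted bursicon conditioned medium after compound addition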
[10] = NIH-3T3 fibroblast cytotoxicity, dose response, cytotoxicity control, cell-based, fluorescence, Alamar Blue, secondary assay (AID 2327); assay type: functional;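 note: NIH-3T3 mouse fibroblasts cultured with fluconazole at 8 µg/mL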
[11] = target: T2, Replicative DNA helicase DnaB (Mycobacterium tuberculosis, UniProt P9WMR3); assay: DnaB intein splicing inhibitors, dose response, biochemical, cell-free fluorescence (AID 449749); assay type: functional
T2 sequence (P9WMR3 whole entry): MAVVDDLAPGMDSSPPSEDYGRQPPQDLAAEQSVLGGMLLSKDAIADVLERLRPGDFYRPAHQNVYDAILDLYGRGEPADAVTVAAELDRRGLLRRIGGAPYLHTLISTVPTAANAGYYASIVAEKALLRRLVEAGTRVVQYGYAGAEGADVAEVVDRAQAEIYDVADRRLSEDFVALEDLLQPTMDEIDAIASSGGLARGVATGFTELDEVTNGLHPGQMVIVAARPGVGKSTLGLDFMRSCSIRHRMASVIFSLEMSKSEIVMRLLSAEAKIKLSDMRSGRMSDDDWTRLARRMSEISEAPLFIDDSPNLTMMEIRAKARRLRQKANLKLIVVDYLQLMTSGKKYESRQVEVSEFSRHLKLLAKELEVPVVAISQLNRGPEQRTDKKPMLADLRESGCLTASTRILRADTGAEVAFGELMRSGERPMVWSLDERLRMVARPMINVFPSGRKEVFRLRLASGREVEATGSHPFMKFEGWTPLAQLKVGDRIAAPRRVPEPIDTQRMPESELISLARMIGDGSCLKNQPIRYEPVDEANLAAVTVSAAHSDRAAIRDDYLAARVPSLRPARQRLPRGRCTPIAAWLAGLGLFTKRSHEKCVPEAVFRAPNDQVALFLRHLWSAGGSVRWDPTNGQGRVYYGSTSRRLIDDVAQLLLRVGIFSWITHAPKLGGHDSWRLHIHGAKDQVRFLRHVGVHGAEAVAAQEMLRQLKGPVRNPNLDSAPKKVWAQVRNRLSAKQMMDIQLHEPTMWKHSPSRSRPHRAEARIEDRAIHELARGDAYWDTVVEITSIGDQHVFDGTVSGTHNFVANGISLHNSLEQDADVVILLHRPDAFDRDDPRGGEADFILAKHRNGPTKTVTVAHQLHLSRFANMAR

[12] = fluconazole-exposed Candida albicans growth modulators – fluorescence, retest, confirmation (AID 2467); assay type: functional, cell-based
Protein RecA = target: T3, Protein RecA (Mycobacterium tuberculosis, UniProt P9WHJ3); assay: Fluorescence Cell-Free Homogeneous Dose Retest to Identify Inhibitors of RecA-Intein Splicing Activity. [Related pubchem assays (depositor defined):AID2097, AID2223, AID489010, AID492950]; assay type: functional
T3 sequence (P9WHJ3 whole entry): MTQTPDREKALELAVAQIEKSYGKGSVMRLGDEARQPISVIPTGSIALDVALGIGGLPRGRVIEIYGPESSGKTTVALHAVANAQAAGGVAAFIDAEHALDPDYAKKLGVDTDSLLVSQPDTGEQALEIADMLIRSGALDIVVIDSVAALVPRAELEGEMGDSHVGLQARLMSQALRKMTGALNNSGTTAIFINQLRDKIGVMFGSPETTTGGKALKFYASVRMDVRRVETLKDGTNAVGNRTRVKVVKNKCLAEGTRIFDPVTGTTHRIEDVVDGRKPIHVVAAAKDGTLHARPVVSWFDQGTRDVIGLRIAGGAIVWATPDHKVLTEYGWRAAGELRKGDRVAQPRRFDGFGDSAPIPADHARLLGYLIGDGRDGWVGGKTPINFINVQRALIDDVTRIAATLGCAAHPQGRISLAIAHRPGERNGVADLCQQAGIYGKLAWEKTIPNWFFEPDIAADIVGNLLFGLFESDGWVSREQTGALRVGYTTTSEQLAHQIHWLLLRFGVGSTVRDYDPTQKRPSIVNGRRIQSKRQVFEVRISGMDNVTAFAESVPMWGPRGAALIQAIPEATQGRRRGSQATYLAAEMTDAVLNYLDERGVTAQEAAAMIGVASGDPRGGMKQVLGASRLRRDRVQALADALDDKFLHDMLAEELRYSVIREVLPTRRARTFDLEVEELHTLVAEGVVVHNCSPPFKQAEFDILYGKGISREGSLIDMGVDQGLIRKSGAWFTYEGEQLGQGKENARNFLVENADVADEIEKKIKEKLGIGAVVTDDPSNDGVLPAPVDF

[13] = Luminescence Cell-Based Dose Response HTS to Identify Inhibitors of 5'UTR Stem-Loop Driven Prion Protein mRNA Translation in H4 Neuroglioblastoma Cells. [Related pubchem assays: 1827 (Project Summary), 1813 (Primary HTS)]; assay type: functional
[14] = luciferase reporter signal suppression in cells – H4 neuroglioma cells, luminescence, dose response (AID 1990); assay type: functional, cell-based
[15] = alpha-synuclein stem-loop luciferase translation blockers – H4 neuroglioma cells, luminescence, confirmation (AID 1988); assay type: functional, cell-based
[16] = Trypanosoma cruzi growth suppression in host cells – NIH3T3 host cells, beta-gal luminescence, confirmation (AID 2044); assay type: functional, cell-based;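 note: intracellular parasites grown in NIH/3T3 mouse fibroblasts as host cells; luminescent beta-galactosidase reporter signal from transgenic T. cruzi replicating inside host cells; inhibitors lower the luminescence signal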
[17] = NIH3T3 cell viability loss – ATP luminescence, mouse fibroblasts, counter-screen, dose response (AID 2010); assay type: functional, cell-based;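 note: cells exposed to compound for about 90 hours before reading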
[18] = viability of uninfected HEp-2 cells – cell-based, HTS, cytotoxicity control for RSV inhibitor project, dose response (AID 2410); assay type: functional; settings: human respiratory syncytial virus
H9c2 = assay: cells; assay type: functional, cell-based; settings: Rattus norvegicus, H9c2, Myocardium;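 note: confirmatory concentration-response retest of ultra-high-throughput screening hits for modulation of myocardial damage; cell death induced by hydrogen peroxide oxidative stress; compound pretreatment for 60 min then peroxide exposure for 2 h; potency is for protecting the cells against peroxide damage rather than for killing them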
[19] = target: Induced myeloid leukemia cell differentiation protein Mcl-1 (Homo sapiens, UniProt Q07820); assay type: functional
Chain of Induced myeloid leukemia cell differentiation protein Mcl-1 (Q07820 whole entry): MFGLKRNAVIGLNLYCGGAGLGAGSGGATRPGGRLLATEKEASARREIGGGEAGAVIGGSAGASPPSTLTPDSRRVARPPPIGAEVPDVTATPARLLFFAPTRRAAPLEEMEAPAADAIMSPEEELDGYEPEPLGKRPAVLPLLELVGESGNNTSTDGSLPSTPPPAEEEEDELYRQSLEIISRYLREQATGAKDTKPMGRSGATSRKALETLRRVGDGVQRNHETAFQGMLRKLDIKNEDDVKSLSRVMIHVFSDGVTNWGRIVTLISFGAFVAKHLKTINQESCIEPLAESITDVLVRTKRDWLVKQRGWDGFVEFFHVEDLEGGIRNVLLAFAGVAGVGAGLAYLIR

BJ [20] = assay: BJ-TERT-LT-ST fibroblast viability loss – cell-based, RAS-independent, luminescence, dose response (AID 1935); assay type: functional; settings: Homo sapiens;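 note: BJ fibroblasts immortalized with TERT plus LT and ST oncogenes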
[21] = DRD fibroblast viability loss – cell-based, non-viral oncogenic, luminescence, dose response (AID 1934); assay type: functional; settings: Homo sapiens
BJ [22] = assay: cells; assay type: functional, cell-based; settings: Homo sapiens
BJ [23] = assay: BJ-TERT fibroblast viability loss – cell-based, RAS-independent, luminescence, dose response (AID 1933); assay type: functional; settings: Homo sapiens
P388 = assay: cells; assay type: functional; settings: Mus musculus
P388/ADR = assay: cells; assay type: functional; settings: Mus musculus
SN12K1 = assay: cells; assay type: functional; settings: Homo sapiens
[24] = P. falciparum Dd2 growth inhibitors, dose response, SYBR Green, cherry-picked samples (AID 1159567); assay type: functional, cell-based

O=C(CC(SCCO)c1ccc2c(c1)OCO2)c1cccs1 (stereo not drawn)
EC50 [1]: 119 µM (active)
IC50 [2]: > 66 µM (inactive)
EC50 (H4): 9.36 µM (active)
EC50 [3]: 3.91 µM (active)
IC50 [4]: > 66 µM (inactive)

Cc1ccc(C(=O)Nc2ccc3c(c2)OCCO3)c(C)c1
AC50 [5]: 44.6 µM (active)
AC50 [6]: > 52 µM (inactive)
AC50 [7]: > 52 µM (inactive)
AC50 [8]: 2.42 µM (active)
AC50 [9]: 2.74 µM (active)

O=c1c(Cl)c(NCCCO)cnn1-c1nc2ccccc2[nH]1
EC50 (H4): 88 µM (active)
EC50 [10]: 9.04 µM (inconclusive)
EC50 [3]: 25.2 µM (active)
AC50 [11]: > 380 µM (inactive)
EC50 [12]: 3.47 µM (active)
EC50 (Protein RecA): 7.41 µM (active)

[O-][n+]1c2c([n+]([O-])c3c1CCCC3)CCCC2
EC50 [13]: > 120 µM (not active)
EC50 [14]: > 120 µM (not active)
EC50 [15]: > 120 µM (not active)

O=C(NC(=O)c1csnn1)Nc1ccccc1Cl
EC50 [1]: 94 µM (active)
EC50 (H4): > 60 µM (not active)
EC50 [3]: 5.61 µM (active)

O=[N+]([O-])c1nn(-c2ccccc2)[n+]([O-])c1NC1CCN(Cc2ccccc2)CC1
EC50 [16]: 0.25 µM (active)
EC50 [13]: > 120 µM (not active)
EC50 [17]: > 60 µM (not active)
EC50 [14]: 14 µM (active)
EC50 [15]: 10.9 µM (active)

O=C(COc1ccc2c(c1)OCO2)Nc1nccs1
AC50 [5]: > 52 µM (inactive)
AC50 [6]: > 52 µM (inactive)
AC50 [7]: 20.6 µM (active)
AC50 [8]: 10.2 µM (active)
AC50 [9]: 7.13 µM (active)

COc1cc(OC)cc(C(=O)NCC(=O)Nc2ccc(-c3ccccc3)cc2)c1
EC50 [1]: 55.6 µM (active)
EC50 (H4): 9.12 µM (active)
EC50 [3]: > 60 µM (not active)

Cn1nnnc1Sc1ncnc2scc(-c3ccccc3C(F)(F)F)c12
AC50 [5]: 20.7 µM (active)
AC50 [7]: 27.9 µM (active)
CC50 [18]: 7.66 µM (active)

CCOC(=O)c1nn(-c2ccc3c(c2)OCO3)cc1O
EC50 [1]: 15.7 µM (active)
EC50 (H4): 23.9 µM (active)
EC50 [3]: 16.6 µM (active)

Cn1c(=O)[nH]c(=O)c2c1nc(N(CCO)Cc1ccccc1)n2CCCc1ccccc1
IC50 (H9c2): 13.8 µM (active)

COc1ccnc(Oc2ccccc2)c1C(=O)N=CNOCc1ccc(F)cc1Cl
IC50 (H9c2): > 79 µM (inactive)

O=C(CSc1nc2ccccc2s1)Nc1cc(S(=O)(=O)N2CCOCC2)ccc1O
IC50 [19]: 1.75 µM (active)

CCOc1ccccc1/C=C(/NC(=O)c1ccccc1)C(=O)N(CC)CC
EC50 [13]: > 120 µM (not active)
EC50 [14]: > 120 µM (not active)
EC50 [15]: > 120 µM (not active)

Cc1cccc(N2C(=O)NC(=O)/C(=C\c3c(-c4ccccc4)[nH]c4ccccc34)C2=O)c1
EC50 [1]: 0.511 µM (active)
EC50 (BJ [20]): 11.5 µM (inconclusive)
EC50 [21]: 3.33 µM (active)
EC50 (H4): > 120 µM (not active)
EC50 (BJ [22]): 58.6 µM (active)
EC50 [3]: > 120 µM (not active)
EC50 (BJ [23]): 3.69 µM (active)

COc1ccc(CCNC(=O)CN(c2ccc(OC)c(OC)c2)S(C)(=O)=O)cc1
IC50 [19]: 26 µM (not active)

Cc1sc2nc(CSCC(=O)N(C)CC(=O)Nc3ccc(F)cc3)nc(O)c2c1C
IC50 (H9c2): 7.7 µM (active)

C=CC[C@@H](CC(=O)NCCO)C(=O)NC[C@H](OC(=O)[C@@H](CC=C)Cc1ccc(F)cc1)c1ccccc1
IC50 (H9c2): > 79 µM (inactive)

CCC(C)C1NC(=O)CNC(=O)C2Cc3c([nH]c4cc(O)ccc34)[S+]([O-])CC(NC(=O)CNC1=O)C(=O)NC(CC(=O)O)C(=O)N1CC(O)CC1C(=O)NC(C(C)C(O)CO)C(=O)N2 (stereo not drawn)
GI50 (P388): 2.47 µM (inactive)
GI50 (P388/ADR): 2.77 µM (inactive)
GI50 (SN12K1): 2.32 µM (inactive)

COc1ccc(CC(N)=O)cc1OC
GI50 (P388): > 1250 µM (inactive)
GI50 (P388/ADR): > 1250 µM (inactive)
GI50 (SN12K1): > 1250 µM (inactive)

OCC#CCNCl
GI50 (P388): 16.1 µM (inactive)
GI50 (P388/ADR): > 46 µM (inactive)
GI50 (SN12K1): > 100 µM (inactive)

Cc1ccc(-c2ccccc2[C@H]2[C@@H](C#N)N(C(=O)NC3CCCC3)[C@H]2CO)cc1
AC50 [24]: 7.19 µM (active)

COc1ccccc1NC(=O)N1CC[C@H]2[C@@H]1c1cc(C#Cc3ccc(F)cc3)ccc1N(C)[C@H]2CO
AC50 [24]: 4.14 µM (active)
